# Reference: patent publication US9079936B2, “Derivatives of APF and methods of use” (University of Maryland, Baltimore, priority 2007, dated 2015)
# “Also recorded” adds a separate entry of the source.
# Tests used:
# [1] = test system: bladder epithelial cells from IC/PBS patients; assay: IC/PBS cell proliferation (3H-thymidine incorporation); type: cell-based, human; conditions: for effect on IC cell proliferation: 0.25 uM, 9, 16, 23 and 30 day treatment (Example 12)
# Procedure: (§1) IC/PBS cells were incubated with varying concentrations of GalGalNAc-TV(D-proline)AAVVVA (SEQ ID NO:11), wherein such glycosylated peptide is SEQ ID NO:30). Cell proliferation was determined by ^3H-thymidine incorporation; gene expression by quantitative RT-PCR; specific protein expression by Western blot analysis; tight junction formation by confocal immunofluorescence microscopy; and paracellular permeability by ^14C-mannitol and ^3H-inulin flux between confluent cells on Transwell plates. Significance of the difference in mean values between groups was determined by an analysis of variance for each assay.
# Study of the effect of APF proline on IC cell proliferation (as measured by thymidine incorporation) following 9, 16, 23, and 30 day treatment with 0.25 uM of the agent.
# as §1, with “a derivative shown to inhibit APF activity in normal bladder cells—GalGalNAc-TV-(D-proline)-AAVVVA” for “GalGalNAc-TV(D-proline)AAVVVA”, “NO: 11),” for “NO:11),”, “RT-PCR;” for “RT-PCR; specific protein expression by Western blot analysis;”, “^14H-inulin” for “^3H-inulin”
# IC/PBS cells produce APF and as a result have a profound decrease in cell proliferation. […] Cells were treated with 1 nM D-proline APF twice weekly, and thymidine incorporation was determined at 9, 16, 23 and 30 days.
# (§2) Cell proliferation was measured by ^3H-thymidine incorporation into explanted normal human bladder epithelial cells, as previously described (Keay et al., 2000; Keay et al., 2001; Keay et al., 2004; Keay et al., 2003; Saitoh et al., 2001). Significant inhibition of ^3H-thymidine incorporation was defined as a mean decrease in counts per minute of greater than 2 standard deviations from the mean of control cells for each plate.
# [2] = test system: normal human bladder epithelial cells; assay: 3H-thymidine incorporation into explanted normal human bladder epithelial cells; type: cell-based
# Procedure: Cell proliferation was measured by ^3H-thymidine incorporation into explanted normal human bladder epithelial cells, as previously described (Keay et al., 2001; Keay et al., 2000; Keay et al., 2003a; Keay et al., 2003b; Keay et al., 1996). Briefly, purified native or synthetic APF (or the appropriate mock preparation) was diluted in serum-free MEM (containing only glutamine and antibiotics/antimycotics) and applied to the cells; cell controls received serum-free MEM alone. Cells were then incubated at 37° C. in a 5% CO2 atmosphere for 48 hours. The cells were then labeled with 1 μCi/well ^3H-thymidine for 4 hours, trypsinized, insoluble cell contents harvested and methanol-fixed onto glass fiber filter paper, and the amount of radioactivity incorporated determined. […]
# The present example concerns exemplary comprehensive structure-activity relationship (SAR) studies on the peptide portion of antiproliferative factor (APF). […] Antiproliferative activity of each derivative was determined by inhibition of ^3H-thymidine incorporation in primary normal human bladder epithelial cells.
# ^3H-Thymidine Incorporation. […] The cell contents harvested and methanol-fixed onto glass fiber filter paper, and the amount of radioactivity incorporated determined. […]
# IC/PBS cell monolayers = assay: Paracellular permeability assay (14C-mannitol and 3H-inulin flux, Transwell); type: cell-based, human; conditions: IC/PBS cells, 16 or 30 days treatment
# Procedure: Flux assays were performed using 12-mm Transwell culture plates (Corning Incorporated, Corning, N.Y.), as previously described (Keay et al., 2000). Cells were plated at 4×10^5 cells/cm^2 on the insert and grown in DMEM-F12 medium containing 10% heat-inactivated FBS, 1% antibiotic solution, 1% L-glutamine, 0.25 units/ml insulin (all from Sigma, St. Louis, Mo.), and 5 ng/ml hEGF (R & D Systems, Minneapolis, Minn.) to establish tight monolayers. On day 2, the medium was changed to MEM (GIBCO/Invitrogen) containing 1% antibiotic/antimycotic solution and 1% L-glutamine (Sigma).
# Two different membrane impermeable molecules, [^14C]-mannitol (molecular weight: 184 Daltons) and [3H]-inulin (molecular weight: 5,200 Daltons), served as paracellular tracers. At the beginning of the flux assay, both sides of the bathing wells of Transwell filters were replaced with fresh medium containing either 5 mM unlabeled mannitol or 0.5 mM unlabeled inulin. Each tracer was added at a final concentration of 3.6 nM for [^14C]-mannitol and 0.36 nM for [^3H]-inulin to the apical bathing wells. The basal bathing well contained the same medium as the apical compartment but without tracers. Flux assays were performed at 37° C.; basal medium was collected at 0.5-6 hrs after addition of [^14C]-mannitol or [^3H]-inulin, and the amount of radioactivity determined using a Beckman LS 5000 scintillation counter. Results were expressed as percentage of total counts for each tracer.
# (§3) For the permeability assay, the percentage of total counts in the basal medium was determined in four experiments (using different IC/PBS cell donors), and expressed as mean±standard deviation. Crossover point analysis was performed for qRT-PCR data, and expression of each gene was quantified relative to β-actin; this value was expressed as mean±standard error of the mean for duplicate runs performed on two separate occasions. ^3H-thymidine incorporation was determined in triplicate on two separate occasions, and the CPM expressed as mean±standard deviation.
# [3] = test system: tight junction protein gene expression in IC/PBS cells; assay: qRT-PCR for tight junction gene expression; type: cell-based, human; conditions: 16 and 30 day treatment, relative to β-actin
# Procedure: Total RNA was extracted from IC/PBS and normal control epithelial cell explants using the RNEasy Plus Mini Kit (Qiagen) according to the manufacturer's protocol. Quantitative real time RT-PCR for tight junction gene expression was performed using Quantitect Primers (Qiagen), SYBR Green RT-PCR kit reagents (Qiagen), and a Roche 480 Light-Cycler. Samples were tested in triplicate runs, and specific mRNA levels quantified and compared to mRNA levels for β-actin using LightCycler 480 real-time PCR analysis software (version 1.5).
# as §3
# [4] = test system: tight junction proteins in IC/PBS cells; assay: Immunofluorescence confocal microscopy of tight junction proteins; type: cell-based, human; conditions: IC/PBS cell explants treated for 9 days
# Procedure: For immunofluorescence, cells were fixed using ethanol/acetone (1:1) for 15 minutes at room temperature, washed 3 times with PBS and incubated with fluorescein isothiocyanate (FITC) labeled mouse monoclonal anti-ZO-1 (5 μg/ml); or unlabeled mouse monoclonal anti-occludin (5 μg/ml) or anti-claudin 4 (3 μg/ml); or unlabeled rabbit polyclonal anti-claudin 1 (3 μg/ml), anti-claudin 8 (8 μg/ml), or anti-claudin 12 (5 μg/ml) antibodies (all from Zymed, South San Francisco, Calif.) diluted in PBS for 2 hours at 37 C. Cells incubated with unlabeled mouse monoclonal primary antibodies were then washed 3 times with PBS and further incubated with FITC-labeled secondary goat anti-mouse IgG antibody (Zymed) diluted in PBS, while cells incubated with unlabeled rabbit polyclonal primary antibodies were washed and further incubated for 2 hours at 37 C with goat anti-rabbit IgG (Zymed) diluted in PBS. Following an additional 5 washes with PBS, the cells were examined using an LSM510 confocal laser scanning microscope (Carl Zeiss, Oberkochen, Germany). Negative controls for the method included cells incubated without primary and secondary antibodies as well as cells incubated with secondary antibody alone.
# [5] = test system: APF activity in normal bladder epithelial cells; assay: Inhibition of APF antiproliferative activity in APF-treated normal bladder cells (3H-thymidine incorporation); type: cell-based, human; conditions: pretreatment with derivative, then active synthetic APF (as-APF), IC/PBS and/or normal bladder cells
# Procedure: as §1
# as §1, with “a derivative shown to inhibit APF activity in normal bladder cells—GalGalNAc-TV-(D-proline)-AAVVVA” for “GalGalNAc-TV(D-proline)AAVVVA”, “NO: 11),” for “NO:11),”, “RT-PCR;” for “RT-PCR; specific protein expression by Western blot analysis;”, “^14H-inulin” for “^3H-inulin”
# as §2
# [6] = listed as GalGalNAc-TV(D-proline)AAVVVA
# [7] = listed as GalGalNAc-TV-(D-proline)-AAVVVA
substance,measurement,setting,value
GalGalNAc-TV(D-proline)AAVVVA [D-proline APF],stimulation of IC/PBS cell proliferation,"[1]; 1 nM twice weekly, thymidine incorporation at 9, 16, 23 and 30 days (Example 14)",stimulated IC/PBS cell proliferation by Day 16
same,effect on IC cell proliferation,[1],significantly stimulated at both time points
same,effect on IC cell proliferation,[1]; listed as APF proline,Optimal stimulation of IC cell proliferation was observed up to the level of normal bladder cell proliferation
same,antiproliferative activity,"[2]; 3H-thymidine incorporation, normal bladder epithelial cells",did not have any intrinsic antiproliferative activity
same,antiproliferative activity normalized to as-APF,[2]; inactive = no significant activity at <25 μM (cut-off limit of the assay),inactive
same,"paracellular permeability (14C-mannitol, 3H-inulin)",IC/PBS cell monolayers,normalized; also recorded: significantly decreased paracellular permeability of both tracer molecules
same,"paracellular permeability (14C-mannitol, 3H-inulin)",IC/PBS cell monolayers; [6],decrease permeability of IC/PBS cells
same,"paracellular permeability (14C-mannitol, 3H-inulin)",IC/PBS cell monolayers; listed as GalGalNAc-TV-(D-Proline)-AAVVVA,significantly decrease permeability of IC/PBS cells
same,"paracellular permeability (14C-mannitol, 3H-inulin)",IC/PBS cell monolayers; [7],normalize IC/PBS cell paracellular permeability
same,tight junction protein mRNA expression,[3],"stimulation of tight junction protein expression; also recorded: stimulate mRNA expression for ZO-1, occludin, and specific claudin (1, 4, 8, and 12)"
same,tight junction protein mRNA expression,[3]; [6],"significantly increase zonula occludens-1 and claudin 1, 4 and 8 expression"
same,tight junction protein mRNA expression,[3]; [7],"significantly increased ZO-1, occludin, and claudin 1, 4, 8, and 12 expression"
same,tight junction protein expression and localization,[4],also increased
same,blocking of APF antiproliferative activity,[5],inhibited this activity in nanomolar concentrations in a dose-dependent manner
same,blocking of APF antiproliferative activity,[5]; [6],blocked APF activity
same,blocking of APF antiproliferative activity,[5]; [7],blocked APF antiproliferative activity; also recorded: blocks APF's inhibitory effects on cell proliferation
